One experiment has as its target GSK3β (Homo sapiens, UniProt P49841). As to the kind of experiment: GSK3β kinase assay (Caliper LabChip, fluoresceinated peptide substrate). Type of experiment: biochemical. The method in brief: (§1)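 Readout: electrophoretic resolution of phosphorylated from unphosphorylated peptide on a LabChip3000. Reactions incubated 20 h at room temperature before termination with 35 mM EDTA. Eleven-concentration curves gave IC50 via non-linear regression.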

In another experiment the target is GSK3α (Homo sapiens, UniProt P49840). Briefly: GSK3α kinase assay (Caliper LabChip, fluoresceinated peptide substrate). Type of experiment: biochemical. An outline of the steps: as §1
Sequence of GSK3α (P49840 whole entry, species assumed): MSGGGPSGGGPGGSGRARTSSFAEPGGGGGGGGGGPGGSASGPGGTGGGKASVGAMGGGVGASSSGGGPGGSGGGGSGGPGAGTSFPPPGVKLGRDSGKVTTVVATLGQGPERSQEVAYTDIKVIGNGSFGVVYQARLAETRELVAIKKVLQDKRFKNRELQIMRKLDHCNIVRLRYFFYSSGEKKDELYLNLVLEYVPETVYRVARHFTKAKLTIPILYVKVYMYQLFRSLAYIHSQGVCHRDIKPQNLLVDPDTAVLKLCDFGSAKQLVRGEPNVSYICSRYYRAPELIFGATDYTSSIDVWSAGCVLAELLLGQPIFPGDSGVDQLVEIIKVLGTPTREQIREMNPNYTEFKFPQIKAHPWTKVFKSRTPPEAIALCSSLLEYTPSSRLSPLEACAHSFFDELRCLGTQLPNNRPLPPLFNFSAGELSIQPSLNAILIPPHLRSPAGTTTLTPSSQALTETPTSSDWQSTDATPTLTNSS
Another experiment relates to pTau. As to the kind of experiment: pTau assay (no method described). Type of experiment: cell-based.
Setting [1] is: first value of the cell, 250 pM enzyme, 20 uM ATP, 20 hours at room temperature, read-out: GSK3β/α (nM): GSK3β IC50.

Like-named read-outs stand apart in the source and are kept apart here.

Sequence of GSK3β (P49841 whole entry, species assumed): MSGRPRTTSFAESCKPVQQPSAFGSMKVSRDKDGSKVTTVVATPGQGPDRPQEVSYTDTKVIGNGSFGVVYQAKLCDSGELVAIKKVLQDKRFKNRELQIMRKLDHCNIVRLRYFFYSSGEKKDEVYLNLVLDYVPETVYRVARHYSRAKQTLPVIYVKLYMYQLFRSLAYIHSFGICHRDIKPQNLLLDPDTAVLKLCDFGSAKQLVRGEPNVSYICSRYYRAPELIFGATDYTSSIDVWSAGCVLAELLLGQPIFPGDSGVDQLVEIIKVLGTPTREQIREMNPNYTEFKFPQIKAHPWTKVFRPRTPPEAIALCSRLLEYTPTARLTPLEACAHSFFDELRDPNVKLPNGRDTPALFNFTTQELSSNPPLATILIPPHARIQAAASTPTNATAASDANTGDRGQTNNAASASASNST

For the compound `O=C(Nc1cncc(-c2ccccc2F)c1)c1ccnc(Nc2ccc(N3CCOCC3)cn2)c1` [Example 140, N-(5-(2-Fluorophenyl)pyridin-3-yl)-2-((5-morpholinopyridin-2-yl)amino)isonicotinamide], the IC50 on GSK3β (setting [1]) was found to be 6.7 nM; against GSK3α it was 10 nM; in the experiment on pTau, 980 nM.

For `COc1ccc(Nc2cc(C(=O)Nc3cncc(-c4ccccc4F)c3)ccn2)nc1` [Example 141, N-(5-(2-Fluorophenyl)pyridin-3-yl)-2-((5-methoxylpyridin-2-yl)amino)isonicotinamide], the IC50 at GSK3β (setting [1]) is 3.5 nM; against GSK3α, 1.8 nM; with pTau, 680 nM.

Turning to `O=C(Nc1cncc(-c2ccccc2F)c1)c1ccnc(Nc2ccc3ccccc3n2)c1` [Example 142, N-(5-(2-Fluorophenyl)pyridin-3-yl)-2-(quinolin-2-ylamino)isonicotinamide], the figures for the IC50 on GSK3β (setting [1]), at GSK3α and in the experiment with pTau were 23 nM, 5.6 nM and 2100 nM, respectively.

`Cc1ccc(Nc2cc(C(=O)Nc3cncc(-c4ccccc4F)c3)ccn2)nc1C` [Example 143, 2-((5,6-Dimethylpyridin-2-yl)amino)-N-(5-(2-fluorophenyl)pyridin-3-yl)isonicotinamide]: the figures for the IC50 at GSK3β, against GSK3α and with pTau were 8.7 nM, 6 nM and 2800 nM, respectively.

Take `O=C(Nc1cncc(-c2ccccc2)c1)c1ccnc(Nc2cccc(C(F)(F)F)n2)c1` [Example 144, N-(5-Phenylpyridin-3-yl)-2-((6-(trifluoromethyl)pyridin-2-yl)amino)isonicotinamide]: the figures for the IC50 at GSK3β (setting [1]), on GSK3α and with pTau were 10 nM, 39 nM and 910 nM, respectively.

As to `O=C(Nc1cncc(-c2ccccc2Cl)c1)c1ccnc(Nc2cccc(C(F)(F)F)n2)c1` [Example 145, N-(5-(2-Chlorophenyl)pyridin-3-yl)-2-((6-(trifluoromethyl)pyridin-2-yl)amino)isonicotinamide], the IC50 at GSK3β (setting [1]) was 6.4 nM; against GSK3α it was 4.4 nM; in the experiment on pTau it was 730 nM.

`O=C(Nc1cncc(-c2cc(F)ccc2F)c1)c1ccnc(Nc2cccc(C(F)(F)F)n2)c1` [Example 146, N-(5-(2,5-Difluorophenyl)pyridin-3-yl)-2-((6-(trifluoromethyl)pyridin-2-yl)amino)isonicotinamide]: the IC50 is 5.1 nM at GSK3β (setting [1]), 3.2 nM at GSK3α and 1400 nM in the experiment on pTau.

For `O=C(Nc1cncc(-c2cccc(F)c2F)c1)c1ccnc(Nc2cccc(C(F)(F)F)n2)c1` [Example 147, N-(5-(2,3-Difluorophenyl)pyridin-3-yl)-2-((6-(trifluoromethyl)pyridin-2-yl)amino)isonicotinamide], the IC50 turned out to be 2.3 nM at GSK3β (setting [1]), 44 nM at GSK3α and 380 nM in the experiment on pTau.

`COc1ccc(Nc2cc(C(=O)Nc3cncc(-c4ccccc4F)c3)ccn2)nc1OC` [Example 151, 2-((5,6-Dimethoxypyridin-2-yl)amino)-N-(5-(2-fluorophenyl)pyridin-3-yl)isonicotinamide]: the IC50 came out at 6 nM on GSK3β (setting [1]), 2.4 nM at GSK3α and 510 nM in the experiment with pTau.

For the compound `N#Cc1cccc(Nc2cc(C(=O)Nc3cncc(-c4ccccc4F)c3)ccn2)n1` [Example 152, 2-((6-Cyanopyridin-2-yl)amino)-N-(5-(2-fluorophenyl)pyridin-3-yl)isonicotinamide], the IC50 at GSK3β (setting [1]) is 1.6 nM; against GSK3α it was 0.87 nM; in the experiment on pTau it was 260 nM.

Take `O=C(Nc1cncc(-c2ccccc2F)c1)c1ccnc(Nc2ccc3cnccc3n2)c1` [Example 153, 2-((1,6-Naphthyridin-2-yl)amino)-N-(5-(2-fluorophenyl)pyridin-3-yl)isonicotinamide]: the results for the IC50 at GSK3β (setting [1]), against GSK3α and in the experiment with pTau were 1.5 nM, 0.45 nM and 200 nM, respectively.

For the compound `CC(C)(C)C(=O)Nc1cccc(Nc2cc(C(=O)Nc3cncc(-c4ccccc4F)c3)ccn2)n1` [Example 154, N-(5-(2-Fluorophenyl)pyridin-3-yl)-2-((6-pivalamidopyridin-2-yl)amino)isonicotinamide], the IC50 came out at 9.2 nM on GSK3β (setting [1]), 2.2 nM at GSK3α and 1100 nM with pTau.

For `Cc1nc(Nc2cc(C(=O)Nc3cncc(-c4ccccc4F)c3)ccn2)ccc1C#N` [Example 155, 2-((5-Cyano-6-methylpyridin-2-yl)amino)-N-(5-(2-fluorophenyl)pyridin-3-yl)isonicotinamide], the results for the IC50 on GSK3β (setting [1]), against GSK3α and in the experiment with pTau were 3.6 nM, 1.2 nM and 570 nM, respectively.

Turning to `NS(=O)(=O)c1ccc(Nc2cc(C(=O)Nc3cncc(-c4ccccc4F)c3)ccn2)nc1` [Example 156, N-(5-(2-Fluorophenyl)pyridin-3-yl)-2-((5-sulfamoylpyridin-2-yl)amino)isonicotinamide], the IC50 at GSK3β (setting [1]) is 3 nM; on GSK3α, 1.6 nM; with pTau, 5600 nM.

As to `CN(C)S(=O)(=O)c1ccc(Nc2cc(C(=O)Nc3cncc(-c4ccccc4F)c3)ccn2)nc1` [Example 157, 2-((5-(N,N-Dimethylsulfamoyl)pyridin-2-yl)amino)-N-(5-(2-fluorophenyl)pyridin-3-yl)isonicotinamide], the IC50 was found to be 3.6 nM at GSK3β (setting [1]), 1.6 nM against GSK3α and 750 nM in the experiment on pTau.

For `CC(=O)c1ccc(Nc2cc(C(=O)Nc3cncc(-c4ccccc4F)c3)ccn2)nc1` [Example 158, 2-((5-Acetylpyridin-2-yl)amino)-N-(5-(2-fluorophenyl)pyridin-3-yl)isonicotinamide], the IC50 on GSK3β (setting [1]) amounted to 6 nM; against GSK3α it was 3 nM; in the experiment with pTau it was 690 nM.

`O=C(Nc1cncc(-c2ccccc2F)c1)c1ccnc(Nc2ccc(S(=O)(=O)N3CCCCC3)cn2)c1` [Example 159, N-(5-(2-Fluorophenyl)pyridin-3-yl)-2-((5-(piperidin-1-ylsulfonyl)pyridin-2-yl)amino)isonicotinamide]: the IC50 on GSK3β was found to be 3.9 nM; at GSK3α it was 1.9 nM; with pTau, 960 nM.

For the compound `N#CC1(c2ccc(Nc3cc(C(=O)Nc4cncc(-c5ccccc5F)c4)ccn3)nc2)CC1` [Example 163, 2-((5-(1-Cyanocyclopropyl)pyridin-2-yl)amino)-N-(5-(2-fluorophenyl)pyridin-3-yl)isonicotinamide], the IC50 turned out to be 3.2 nM on GSK3β (setting [1]), 1.1 nM against GSK3α and 610 nM with pTau.

On to `CC(C)(C#N)c1ccc(Nc2cc(C(=O)Nc3cncc(-c4ccccc4F)c3)ccn2)nc1` [Example 164, 2-((5-(2-Cyanopropan-2-yl)pyridin-2-yl)amino)-N-(5-(2-fluorophenyl)pyridin-3-yl)isonicotinamide], for which the IC50 is 4.9 nM on GSK3β (setting [1]), 2.4 nM on GSK3α and 3100 nM with pTau.

On to `N#Cc1cccc(Nc2cc(C(=O)Nc3cncc(-c4ccc(C#N)c(F)c4)c3)ccn2)n1` [Example 165, N-(5-(4-Cyano-3-fluorophenyl)pyridin-3-yl)-2-((6-cyanopyridin-2-yl)amino)isonicotinamide], for which the IC50 at GSK3β (setting [1]) came out at 1.2 nM; at GSK3α, 0.4 nM; with pTau, 84 nM.

In the case of `N#Cc1cccc(Nc2cc(C(=O)Nc3cncc(-c4cccc(F)c4C#N)c3)ccn2)n1` [Example 166, N-(5-(2-Cyano-3-fluorophenyl)pyridin-3-yl)-2-((6-cyanopyridin-2-yl)amino)isonicotinamide], the IC50 on GSK3β (setting [1]) is 0.91 nM; against GSK3α it was 0.28 nM; in the experiment on pTau, 390 nM.

As to `O=C(Nc1cnccc1-c1ccccc1)c1cc(Nc2ccc(C(F)(F)F)cn2)ncc1F` [Example 167, 5-Fluoro-N-(4-phenylpyridin-3-yl)-2-((5-(trifluoromethyl)pyridin-2-yl)amino)isonicotinamide], the IC50 on GSK3β (setting [1]) is 1.8 nM; against GSK3α, 0.55 nM; in the experiment on pTau, 230 nM.

As for `O=C(Nc1cnccc1OCC(F)(F)F)c1ccnc(Nc2ccc(C(F)(F)F)cn2)c1F` [Example 169, 3-Fluoro-N-(4-(2,2,2-trifluoroethoxy)pyridin-3-yl)-2-((5-(trifluoromethyl)pyridin-2-yl)amino)isonicotinamide], the IC50 at GSK3β (setting [1]) was found to be 28 nM; against GSK3α it was 10 nM; in the experiment on pTau it was 3900 nM.

For `CCCSc1ccncc1NC(=O)c1ccnc(Nc2ccc(C(F)(F)F)cn2)c1` [Example 170, N-(4-(Propylthio)pyridin-3-yl)-2-((5-(trifluoromethyl)pyridin-2-yl)amino)isonicotinamide], the IC50 stood at 0.75 nM on GSK3β (setting [1]), 0.21 nM against GSK3α and 49 nM in the experiment on pTau.

Consider `O=C(Nc1cnccc1SCC(F)(F)F)c1ccnc(Nc2ccc(C(F)(F)F)cn2)c1` [Example 171, N-(4-((2,2,2-Trifluoroethyl)thio)pyridin-3-yl)-2-((5-(trifluoromethyl)pyridin-2-yl)amino)isonicotinamide], for which the IC50 was 1.2 nM on GSK3β (setting [1]), 0.61 nM against GSK3α and 47 nM in the experiment on pTau.

Consider `O=C(Nc1cnccc1Sc1ccccc1)c1ccnc(Nc2ccc(C(F)(F)F)cn2)c1` [Example 172, N-(4-(Phenylthio)pyridin-3-yl)-2-((5-(trifluoromethyl)pyridin-2-yl)amino)isonicotinamide], for which the IC50 turned out to be 5.6 nM on GSK3β (setting [1]), 1.1 nM against GSK3α and 240 nM in the experiment on pTau.

As to `CC(C)Sc1ccncc1NC(=O)c1ccnc(Nc2ccc(C(F)(F)F)cn2)c1` [Example 173, N-(4-(Isopropylthio)pyridin-3-yl)-2-((5-(trifluoromethyl)pyridin-2-yl)amino)isonicotinamide], the figures for the IC50 on GSK3β (setting [1]), against GSK3α and in the experiment on pTau were 0.52 nM, 0.19 nM and 48 nM, respectively.

For `CC(C)(C)Sc1ccncc1NC(=O)c1ccnc(Nc2ccc(C(F)(F)F)cn2)c1` [Example 174, N-(4-(tert-Butylthio)pyridin-3-yl)-2-((5-(trifluoromethyl)pyridin-2-yl)amino)isonicotinamide], the IC50 was determined as 0.14 nM at GSK3β (setting [1]), 0.08 nM at GSK3α and 27 nM in the experiment with pTau.

These data come from patent US9718804B2, “GSK-3 inhibitors” (BRISTOL-MYERS SQUIBB COMPANY, priority 2013, dated 2017).
